The results in this text go back to patent publication US11504371B2, “Quinazolines compound, preparation method therefor and application thereof” (Beijing Normal University, priority 2017, dated 2022).

Common to all, as to format: cell-based
The test system of test [1] is human prostate cancer cell line (DU145). Briefly: MTT assay, tumor cell proliferation inhibition, DU145. The note with it: DU145, MTT, 72 h; read-out: Tumor inhibition rate (IC50). As for the experimental part: (§1) Cell lines to be tested: human hepatoma cell line (HepG2), human lung cancer cell line (A549), human prostate cancer cell line (DU145), human breast cancer cell line (MCF-7), human neuroblastoma cell line (SH-SY5Y), human gastric mucosal cell line (Ges-1) and human embryonic lung fibroblast cell line (CCC-HPF-1) (the cells to be tested were purchased from the Cancer Hospital of Chinese Academy of Medical Sciences).
(§2) The cells in logarithmic growth phase were treated to prepare a single cell suspension, with the cell density adjusted, which was seeded in a 96-well cell culture plate. About 2×10^3 cells were contained in 100 μL per well, and cultured in a cell incubator at 37° C., 5% CO2, and saturated humidity for 24 h. The used medium was aspirated and abandoned, and then 100 μL of the target compound in different concentrations (0.1 μM-100 μM) were added for drug treatment. Five duplicate wells were prepared for each concentration. The background blank well, negative control well and positive control well were also prepared. All the wells were placed in a cell culture incubator at 37° C., 5% CO2, saturated humidity for another 72 h. Then, each well was added with 10 μL of MTT solution (5 mg/mL) and incubated for another 4 h. After that, each well was added with 100 μL of 10% SDS-0.1% NH4Cl (10% SDS purchased from Beijing Mengyimei Biotechnology Co., Ltd.) solution, and incubated at 37° C. for 10 h in the dark. Then, the absorbance OD was measured at 570 nm using a microplate reader at a reference wavelength of 650 nm. Cell proliferation inhibition was calculated according to the following formula: % inhibition=(ODcontrol−ODtreat)(ODcontrol−ODblank)×100. […] Each group was performed at least three times in parallel.

For test [2], the system named is human hepatoma cell line (HepG2). Briefly: MTT assay, tumor cell proliferation inhibition, HepG2. The note with it: 72 h, read-out: Tumor inhibition rate (IC50). As for the experimental part: as §1, §2
In general terms: Formazan colour is commonly taken as a measure of viable cells.

The test system of test [3] is human neuroblastoma cell line (SH-SY5Y). Nature of the test: MTT assay, tumor cell proliferation inhibition, SH-SY5Y. Particulars: SH-SY5Y, 72 h, read-out: Tumor inhibition rate (IC50). As for the experimental part:
as §1, §2

Test [4] deals with human breast cancer cell line (MCF-7). Briefly: MTT assay, tumor cell proliferation inhibition, MCF-7. Particulars: for pIC50: MCF-7, MTT, 72 h, read-out: Tumor inhibition rate (IC50). As for the experimental part: as §1, §2
The subject of test [5] is human lung cancer cell line (A549). Briefly: MTT assay, tumor cell proliferation inhibition, A549. The note with it: for pIC50: A549, MTT, 72 h, read-out: Tumor inhibition rate (IC50); for inhibitory activity on A549 (in words): MTT, summary of Table 1. As for the experimental part: as §1, §2

pIC50: −log10 of the molar value.

Consider `Fc1ccc(COc2cccc(Nc3ncnc4cc5c(cc34)OCCOCCO5)c2)cc1` [Compound 5, N-(3-((p-fluorophenyl)methoxy)phenyl)-6,7-(benzo-9-crown-3)-4-quinazolinamine], for which the pIC50 – broadly, the negative decadic logarithm of the IC50, by convention in mol/L – is below 4.00 in test [1]; below 4.00 in test [2]; 4.26 in test [3]; 4.11 in test [4]; 5.11 in test [5]. In test [5], the “inhibitory activity on A549 (in words)” value was “strong specific inhibitory activity”.

For `c1ccc(OCc2ccncc2)c(Nc2ncnc3cc4c(cc23)OCCOCCO4)c1` [Compound 12, N-(2-((4-pyridyl)methoxy)phenyl)-6,7-(benzo-9-crown-3)-4-quinazolinamine], the negative logarithm of the IC50 (pIC50) in test [1] is below 4.00; in test [2], 4.51; in test [3], below 4.00; in test [4], below 4.00; in test [5] it was below 4.00.

Take `FC(F)(F)c1ccc(COc2ccccc2Nc2ncnc3cc4c(cc23)OCCOCCOCCO4)cc1` [Compound 22, N-(2-((4-trifluoromethylphenyl)methoxy)phenyl)-6,7-(benzo-12-crown-4)-4-quinazolinamine]: the pIC50 in test [1], in test [2], in test [3], in test [4] and in test [5] was below 4.00 in each case.

Consider `FC(F)(F)c1ccc(COc2ccc(Nc3ncnc4cc5c(cc34)OCCOCCOCCO5)cc2)cc1` [Compound 24, N-(4-((4-trifluoromethylphenyl)methoxy)phenyl)-6,7-(benzo-12-crown-4)-4-quinazolinamine], for which the negative logarithm of the IC50 (pIC50) in test [1], in test [2], in test [3], in test [4] and in test [5] was below 4.00 in each case.

On to `O=[N+]([O-])c1ccc(COc2ccccc2Nc2ncnc3cc4c(cc23)OCCOCCOCCO4)cc1` [Compound 18, N-(2-((4-nitrophenyl)methoxy)phenyl)-6,7-(benzo-12-crown-4)-4-quinazolinamine], for which the pIC50 is below 4.00 in test [1]; 4.22 in test [2]; 4.12 in test [3]; below 4.00 in test [4]; 4.52 in test [5].

For the compound `Fc1ccc(COc2ccccc2Nc2ncnc3cc4c(cc23)OCCOCCO4)cc1Cl` [Compound 13, N-(2-((3-chloro,4-fluorophenyl)methoxy)phenyl)-6,7-(benzo-9-crown-3)-4-quinazolinamine], the pIC50 in test [1] was 4.05; in test [2], below 4.00; in test [3] it was below 4.00; in test [4] it was below 4.00; in test [5], 5.03. Besides, the “inhibitory activity on A549 (in words)” value in test [5] is listed as “strong specific inhibitory activity”.

With `FC(F)(F)c1ccc(COc2ccc(Nc3ncnc4cc5c(cc34)OCCOCCO5)cc2)cc1` [Compound 9, N-(4-((4-trifluoromethylphenyl)methoxy)phenyl)-6,7-(benzo-9-crown-3)-4-quinazolinamine], the pIC50 in test [1] was below 4.00; in test [2], below 4.00; in test [3] it was 4.52; in test [4], below 4.00; in test [5], below 4.00.

`Fc1ccc(COc2cccc(Nc3ncnc4cc5c(cc34)OCCOCCO5)c2)cc1Cl` [Compound 14, N-(3-((3-chloro,4-fluorophenyl)methoxy)phenyl)-6,7-(benzo-9-crown-3)-4-quinazolinamine]: the pIC50 in test [1] was 4.05; in test [2], 4.36; in test [3], 4.64; in test [4] it was below 4.00; in test [5], below 4.00.

As for `c1ccc(COc2cccc(Nc3ncnc4cc5c(cc34)OCCOCCOCCO5)c2)cc1` [Compound 21, N-(3-((phenyl)methoxy)phenyl)-6,7-(benzo-12-crown-4)-4-quinazolinamine], the pIC50 is below 4.00 in test [1]; below 4.00 in test [2]; 4.64 in test [3]; below 4.00 in test [4]; below 4.00 in test [5].

For the compound `c1ccc(COc2ccccc2Nc2ncnc3cc4c(cc23)OCCOCCOCCOCCO4)cc1` [Compound 27, N-(2-((phenyl)methoxy)phenyl)-6,7-(benzo-15-crown-5)-4-quinazolinamine], the pIC50 in test [1] is below 4.00; in test [2] it was 4.53; in test [3], 4.62; in test [4] it was below 4.00; in test [5] it was 4.31.

As to `O=[N+]([O-])c1ccc(COc2ccc(Nc3ncnc4cc5c(cc34)OCCOCCOCCOCCO5)cc2)cc1` [Compound 32, N-(4-((4-nitrophenyl)methoxy)phenyl)-6,7-(benzo-15-crown-5)-4-quinazolinamine], the pIC50 in test [1], in test [2], in test [3], in test [4] and in test [5] was below 4.00 each time.

With `Fc1ccc(COc2ccc(Nc3ncnc4cc5c(cc34)OCCOCCOCCO5)cc2)cc1` [Compound 17, N-(4-((p-fluorophenyl)methoxy)phenyl)-6,7-(benzo-12-crown-4)-4-quinazolinamine], the pIC50 was below 4.00 in test [1]; below 4.00 in test [2]; 4.68 in test [3]; 5.08 in test [4]; below 4.00 in test [5]. In addition, the “inhibitory effect on MCF-7 (in words)” value in test [4] (MTT, summary of Table 1) is recorded as “strong specific inhibitory effect”.

Regarding `Fc1ccc(COc2ccc(Nc3ncnc4cc5c(cc34)OCCOCCO5)cc2)cc1` [Compound 6, N-(4-((p-fluorophenyl)methoxy)phenyl)-6,7-(benzo-9-crown-3)-4-quinazolinamine], the pIC50 in test [1] is below 4.00; in test [2], below 4.00; in test [3], 4.08; in test [4] it was 4.19; in test [5], 4.36.

Regarding `O=[N+]([O-])c1ccc(COc2ccccc2Nc2ncnc3cc4c(cc23)OCCOCCOCCOCCO4)cc1` [Compound 30, N-(2-((4-nitrophenyl)methoxy)phenyl)-6,7-(benzo-15-crown-5)-4-quinazolinamine], the pIC50 in test [1] is below 4.00; in test [2], 4.32; in test [3], below 4.00; in test [4], below 4.00; in test [5], below 4.00.

Take `O=[N+]([O-])c1ccc(COc2cccc(Nc3ncnc4cc5c(cc34)OCCOCCO5)c2)cc1` [Compound 2, N-(3-((4-nitrophenyl)methoxy)phenyl)-6,7-(benzo-9-crown-3)-4-quinazolinamine]: the pIC50 in test [1] was below 4.00; in test [2], 4.18; in test [3], 4.44; in test [4] it was 4.37; in test [5], 4.81.

For `Fc1ccc(COc2ccccc2Nc2ncnc3cc4c(cc23)OCCOCCO4)cc1` [Compound 4, N-(2-((p-fluorophenyl)methoxy)phenyl)-6,7-(benzo-9-crown-3)-4-quinazolinamine], the pIC50 is below 4.00 in test [1]; below 4.00 in test [2]; 4.07 in test [3]; below 4.00 in test [4]; 4.84 in test [5].

For the compound `FC(F)(F)c1ccc(COc2cccc(Nc3ncnc4cc5c(cc34)OCCOCCO5)c2)cc1` [Compound 8, N-(3-((4-trifluoromethylphenyl)methoxy)phenyl)-6,7-(benzo-9-crown-3)-4-quinazolinamine], the pIC50 in test [1] was below 4.00; in test [2], below 4.00; in test [3], 4.72; in test [4] it was below 4.00; in test [5], below 4.00.

As to `c1ccc(COc2cccc(Nc3ncnc4cc5c(cc34)OCCOCCOCCOCCO5)c2)cc1` [Compound 28, N-(3-((phenyl)methoxy)phenyl)-6,7-(benzo-15-crown-5)-4-quinazolinamine], the pIC50 in test [1] is below 4.00; in test [2], 4.26; in test [3], 4.41; in test [4] it was below 4.00; in test [5], 4.36.

With `Fc1ccc(COc2ccc(Nc3ncnc4cc5c(cc34)OCCOCCO5)cc2)cc1Cl` [Compound 15, N-(4-((3-chloro,4-fluorophenyl)methoxy)phenyl)-6,7-(benzo-9-crown-3)-4-quinazolinamine], the pIC50 in test [1] is below 4.00; in test [2], 4.12; in test [3] it was below 4.00; in test [4], below 4.00; in test [5], below 4.00.

For the compound `FC(F)(F)c1ccc(COc2ccccc2Nc2ncnc3cc4c(cc23)OCCOCCOCCOCCO4)cc1` [Compound 33, N-(2-((4-trifluoromethylphenyl)methoxy)phenyl)-6,7-(benzo-15-crown-5)-4-quinazolinamine], the pIC50 was below 4.00 in test [1]; below 4.00 in test [2]; below 4.00 in test [3]; 4.55 in test [4]; 4.51 in test [5].
